Experimental data as given in ChEMBL document CHEMBL3885881, “DrugMatrix”.

Species: Rattus norvegicus
Assay: DrugMatrix - Regimen: Daily Repeat
Assay type: toxicity, organism-based, Sprague-Dawley
Design: regimen Daily Repeat, gender Male, age 6-8 weeks
Conditions: in vivo, po, route oral GAVAGE, vehicle .5 % CMC; for ABSOLUTE BASOPHIL / ABSOLUTE EOSINOPHIL / ABSOLUTE LYMPHOCYTE / ABSOLUTE MONOCYTE / ABSOLUTE SEGMENTED NEUTROPHIL / BASOPHIL / EOSINOPHIL / ERYTHROCYTE COUNT / HEMATOCRIT / HEMOGLOBIN / LEUKOCYTE COUNT / LYMPHOCYTE / MEAN CORPUSCULAR HEMOGLOBIN / MEAN CORPUSCULAR HEMOGLOBIN CONCENTRATION / MEAN CORPUSCULAR VOLUME / MONOCYTE / NEUTROPHIL / NUCLEATED RED BLOOD CELLS / PLATELET COUNT: tissue Blood; for ALANINE AMINOTRANSFERASE / ALBUMIN / ALKALINE PHOSPHATASE / ASPARTATE AMINOTRANSFERASE / BLOOD UREA NITROGEN / CARBON DIOXIDE / CHLORIDE / CHOLESTEROL / CREATINE PHOSPHOKINASE / CREATININE / GLUCOSE / LACTATE DEHYDROGENASE / LIPASE / PHOSPHORUS / POTASSIUM / SODIUM / TOTAL BILIRUBIN / TOTAL PROTEIN / URIC ACID: tissue Plasma
[1] = 0 mg/kg, 72 h, dose level Control, time 3 day
[2] = 0 mg/kg, 120 h, dose level Control, time 5 day
[3] = 100 mg/kg, 72 h, dose level Low, time 3 day

CN/C(=N/CCSCc1nc[nH]c1C)NC#N [CIMETIDINE]
ABSOLUTE BASOPHIL [1]: 0 CELLS/uL | ABSOLUTE EOSINOPHIL [1]: 0 CELLS/uL | ABSOLUTE LYMPHOCYTE [1]: 12191.17 CELLS/uL | ABSOLUTE MONOCYTE [1]: 183.17 CELLS/uL | ABSOLUTE SEGMENTED NEUTROPHIL [1]: 1192.33 CELLS/uL | BASOPHIL [1]: 0% | EOSINOPHIL [1]: 0% | ERYTHROCYTE COUNT [1]: 5.51 x10E6/uL | HEMATOCRIT [1]: 35.45% | HEMOGLOBIN [1]: 13.82 G/DL | LEUKOCYTE COUNT [1]: 13.57 x10E3/uL | LYMPHOCYTE [1]: 89.83% | MEAN CORPUSCULAR HEMOGLOBIN [1]: 25.1 pg | MEAN CORPUSCULAR HEMOGLOBIN CONCENTRATION [1]: 38.98 G/DL | MEAN CORPUSCULAR VOLUME [1]: 64.42 fL | MONOCYTE [1]: 1.33% | NEUTROPHIL [1]: 8.83% | NUCLEATED RED BLOOD CELLS [1]: 0 /100WBC | PLATELET COUNT [1]: 1118.17 x10E3/uL | ALANINE AMINOTRANSFERASE [1]: 55 u/L | ALBUMIN [1]: 4.15 G/DL | ALKALINE PHOSPHATASE [1]: 449.5 u/L | ASPARTATE AMINOTRANSFERASE [1]: 112.83 u/L | BLOOD UREA NITROGEN [1]: 17.33 mg/dL | CARBON DIOXIDE [1]: 29.5 mmol/L | CHLORIDE [1]: 101 MEQ/L | CHOLESTEROL [1]: 70 mg/dL | CREATINE PHOSPHOKINASE [1]: 1325.83 u/L | CREATININE [1]: 0.18 mg/dL | GLUCOSE [1]: 171.5 mg/dL | LACTATE DEHYDROGENASE [1]: 386 u/L | LIPASE [1]: 10 u/L | PHOSPHORUS [1]: 11.57 mg/dL | POTASSIUM [1]: 6.21 MEQ/L | SODIUM [1]: 141.65 MEQ/L | TOTAL BILIRUBIN [1]: 0.15 mg/dL | TOTAL PROTEIN [1]: 5.75 G/DL | URIC ACID [1]: 1.28 mg/dL | ABSOLUTE BASOPHIL [2]: 0 CELLS/uL | ABSOLUTE EOSINOPHIL [2]: 138.17 CELLS/uL | ABSOLUTE LYMPHOCYTE [2]: 13283.17 CELLS/uL | ABSOLUTE MONOCYTE [2]: 303.83 CELLS/uL | ABSOLUTE SEGMENTED NEUTROPHIL [2]: 1308.17 CELLS/uL | BASOPHIL [2]: 0% | EOSINOPHIL [2]: 1% | ERYTHROCYTE COUNT [2]: 5.32 x10E6/uL | HEMATOCRIT [2]: 33.8% | HEMOGLOBIN [2]: 13.63 G/DL | LEUKOCYTE COUNT [2]: 15.03 x10E3/uL | LYMPHOCYTE [2]: 88.33% | MEAN CORPUSCULAR HEMOGLOBIN [2]: 25.68 pg | MEAN CORPUSCULAR HEMOGLOBIN CONCENTRATION [2]: 40.35 G/DL | MEAN CORPUSCULAR VOLUME [2]: 63.67 fL | MONOCYTE [2]: 1.83% | NEUTROPHIL [2]: 8.83% | NUCLEATED RED BLOOD CELLS [2]: 0 /100WBC | PLATELET COUNT [2]: 1097.5 x10E3/uL | ALANINE AMINOTRANSFERASE [2]: 54.5 u/L | ALBUMIN [2]: 4.27 G/DL | ALKALINE PHOSPHATASE [2]: 337 u/L | ASPARTATE AMINOTRANSFERASE [2]: 94.67 u/L | BLOOD UREA NITROGEN [2]: 17 mg/dL | CARBON DIOXIDE [2]: 28.33 mmol/L | CHLORIDE [2]: 101.5 MEQ/L | CHOLESTEROL [2]: 71.33 mg/dL | CREATINE PHOSPHOKINASE [2]: 628.17 u/L | CREATININE [2]: 0.19 mg/dL | GLUCOSE [2]: 177.83 mg/dL | LACTATE DEHYDROGENASE [2]: 500.5 u/L | LIPASE [2]: 9.5 u/L | PHOSPHORUS [2]: 12.3 mg/dL | POTASSIUM [2]: 5.63 MEQ/L | SODIUM [2]: 143.03 MEQ/L | TOTAL BILIRUBIN [2]: 0.2 mg/dL | TOTAL PROTEIN [2]: 6.02 G/DL | URIC ACID [2]: 1.5 mg/dL | ABSOLUTE BASOPHIL [3]: 0 CELLS/uL | ABSOLUTE EOSINOPHIL [3]: 0 CELLS/uL | ABSOLUTE LYMPHOCYTE [3]: 13567.33 CELLS/uL | ABSOLUTE MONOCYTE [3]: 279 CELLS/uL | ABSOLUTE SEGMENTED NEUTROPHIL [3]: 1153.67 CELLS/uL | BASOPHIL [3]: 0% | EOSINOPHIL [3]: 0% | ERYTHROCYTE COUNT [3]: 5.31 x10E6/uL | HEMATOCRIT [3]: 33.83% | HEMOGLOBIN [3]: 13.33 G/DL | LEUKOCYTE COUNT [3]: 15 x10E3/uL | LYMPHOCYTE [3]: 89.67% | MEAN CORPUSCULAR HEMOGLOBIN [3]: 25.1 pg | MEAN CORPUSCULAR HEMOGLOBIN CONCENTRATION [3]: 39.4 G/DL | MEAN CORPUSCULAR VOLUME [3]: 63.63 fL | MONOCYTE [3]: 2% | NEUTROPHIL [3]: 8.33% | NUCLEATED RED BLOOD CELLS [3]: 0 /100WBC | PLATELET COUNT [3]: 1282 x10E3/uL | ALANINE AMINOTRANSFERASE [3]: 53 u/L | ALBUMIN [3]: 4.17 G/DL | ALKALINE PHOSPHATASE [3]: 373 u/L | ASPARTATE AMINOTRANSFERASE [3]: 80.33 u/L | BLOOD UREA NITROGEN [3]: 17.67 mg/dL | CARBON DIOXIDE [3]: 30 mmol/L | CHLORIDE [3]: 100.33 MEQ/L | CHOLESTEROL [3]: 78.33 mg/dL | CREATINE PHOSPHOKINASE [3]: 276 u/L | CREATININE [3]: 0.18 mg/dL | GLUCOSE [3]: 159.67 mg/dL | LACTATE DEHYDROGENASE [3]: 157.33 u/L | LIPASE [3]: 10 u/L | PHOSPHORUS [3]: 10.93 mg/dL | POTASSIUM [3]: 6.04 MEQ/L | SODIUM [3]: 141.53 MEQ/L | TOTAL BILIRUBIN [3]: 0.17 mg/dL | TOTAL PROTEIN [3]: 5.77 G/DL | URIC ACID [3]: 1.33 mg/dL
